Test [1] can be described thus: Expansion-promoting activity against human CD34+ cells assessed as increase in Lin-CD34+CD38-CD45RA-CD49f+CD90- multipotent progenitor cells measured after 4 days by FACS analysis relative to control. The format is functional, CD34-positive (myeloid/lymphoid) cell. A general note: A flow cytometer gives signals particle by particle.
Test [2] has as its system CD34-positive (myeloid/lymphoid) cell. In words: Expansion-promoting activity against human CD34+cells assessed as increase in CD34+/CD38- cells measured after 4 days by FACS analysis. The format is functional, cell-based.
The test system is the same in test [3]. Nature of the test: Expansion-promoting activity against human CD34+ cells assessed as increase in Lin-CD34+CD38-CD45RA-CD49f-CD90- multipotent progenitor cells measured after 4 days by FACS analysis. It is filed as functional, cell-based.
Test [4] can be described thus: Expansion of human CD34+cells measured after 4 days by FACS analysis. The format is functional, CD34-positive (myeloid/lymphoid) cell.

These results are taken from ChEMBL document CHEMBL4665782, “Furostanol Saponins from Trillium tschonoskii Promote the Expansion of Human Cord Blood Hematopoietic Stem and Progenitor Cells” (2020).

The source made the active and inactive calls. The calls are words filed in the database; no cut-off is given here.

Turning to `C/C(C(=O)CC[C@@H](C)CO[C@@H]1O[C@H](CO)[C@@H](O)[C@H](O)[C@H]1O)=C1/C(=O)C[C@H]2[C@@H]3CC=C4C[C@@H](O[C@@H]5O[C@H](CO)[C@@H](O)[C@H](O)[C@H]5O[C@@H]5O[C@@H](C)[C@H](O)[C@@H](O)[C@H]5O)CC[C@]4(C)[C@H]3CC[C@]12C`, the figures for the “fold change (FC)” value in test [1] and in test [4] were 1 and 5.7, respectively. Moreover, the outcome in test [2] and in test [3] was Active.

Turning to `CC1=C2[C@](O)(C[C@H]3[C@@H]4C[C@@H](O)[C@@]5(O)C[C@@H](O[C@@H]6O[C@H](CO)[C@@H](O[C@@H]7O[C@@H](C)[C@H](O[C@@H]8O[C@@H](C)[C@H](O)[C@@H](O)[C@H]8O)[C@@H](O)[C@H]7O)[C@H](O)[C@H]6O[C@@H]6O[C@@H](C)[C@H](O)[C@@H](O)[C@H]6O)CC[C@]5(C)[C@H]4CC[C@]23C)C(C[C@@H](C)CO[C@@H]2O[C@H](CO)[C@@H](O)[C@H](O)[C@H]2O)C1=O` (some centres undefined), the “fold change (FC)” value was 1.3 in test [1] and 6.7 in test [4]. For the same compound, the result in test [2] and in test [3] was Active.

With `C[C@H](CC[C@@]1(O)OC2C[C@H]3[C@@H]4C[C@@H](O)[C@@]5(O)C[C@@H](O[C@@H]6O[C@H](CO)[C@@H](O[C@@H]7O[C@@H](C)[C@H](O[C@@H]8O[C@@H](C)[C@H](O)[C@@H](O)[C@H]8O)[C@@H](O)[C@H]7O)[C@H](O)[C@H]6O[C@@H]6O[C@@H](C)[C@H](O)[C@@H](O)[C@H]6O)CC[C@]5(C)[C@H]4CC[C@]3(C)[C@@]2(O)[C@@H]1C)CO[C@@H]1O[C@H](CO)[C@@H](O)[C@H](O)[C@H]1O` (some centres undefined), the “fold change (FC)” value in test [1] came to 1.8; in test [4], 8.4. Moreover, the outcome in test [3] was Active.

Regarding `C[C@H](CC[C@@]1(O)OC2C[C@H]3[C@@H]4C[C@@H](O)[C@@]5(O)C[C@@H](O[C@@H]6O[C@H](CO)[C@@H](O)[C@H](O)[C@H]6O[C@@H]6O[C@@H](C)[C@H](O)[C@@H](O)[C@H]6O)CC[C@]5(C)[C@H]4CC[C@]3(C)[C@@]2(O)[C@@H]1C)CO[C@@H]1O[C@H](CO)[C@@H](O)[C@H](O)[C@H]1O` (some centres undefined), in test [3], the result was Active.

For the compound `C[C@H](CC[C@@]1(O)OC2C[C@H]3[C@@H]4CC=C5C[C@@H](O[C@@H]6O[C@H](CO)[C@@H](O[C@@H]7O[C@H](CO)[C@H](O)[C@@H](O)[C@H]7O)[C@H](O)[C@H]6O[C@@H]6O[C@@H](C)[C@H](O)[C@@H](O)[C@H]6O)CC[C@]5(C)[C@H]4CC[C@]3(C)[C@@]2(O)[C@@H]1C)CO[C@@H]1O[C@H](CO)[C@@H](O)[C@H](O)[C@H]1O` (some centres undefined), the figures for the “fold change (FC)” value in test [1] and in test [4] were 1.9 and 8.8, respectively. The outcome in test [2] and in test [3] was Active.

Take `Cc1c(CC[C@@H](C)CO[C@@H]2O[C@H](CO)[C@@H](O)[C@H](O)[C@H]2O)oc2c1[C@@]1(C)CC[C@H]3[C@@H](C[C@@H](O)[C@@]4(O)C[C@@H](O[C@@H]5O[C@H](CO)[C@@H](O[C@@H]6O[C@@H](C)[C@H](O[C@@H]7O[C@@H](C)[C@H](O)[C@@H](O)[C@H]7O)[C@@H](O)[C@H]6O)[C@H](O)[C@H]5O[C@@H]5O[C@@H](C)[C@H](O)[C@@H](O)[C@H]5O)CC[C@]34C)[C@@H]1C2`: the entries for the “fold change (FC)” value in test [1] and in test [4] were 1.6 and 7.7, respectively. Besides, the outcome in test [2] and in test [3] was Active.

Regarding `C/C(C(=O)CC[C@@H](C)CO[C@@H]1O[C@H](CO)[C@@H](O)[C@H](O)[C@H]1O)=C1/C(=O)C[C@H]2[C@@H]3CC=C4C[C@@H](O[C@@H]5O[C@H](CO)[C@@H](O[C@@H]6O[C@@H](C)[C@H](O)[C@@H](O)[C@H]6O)[C@H](O)[C@H]5O[C@@H]5O[C@@H](C)[C@H](O)[C@@H](O)[C@H]5O)CC[C@]4(C)[C@H]3CC[C@]12C`, the result in test [3] was Active.

In the case of `C[C@H](CCC(=O)[C@@H](C)C1C(=O)C[C@H]2[C@@H]3CC=C4C[C@@H](O[C@@H]5O[C@H](CO)[C@@H](O)[C@H](O)[C@H]5O[C@@H]5O[C@@H](C)[C@H](O)[C@@H](O)[C@H]5O)CC[C@]4(C)[C@H]3CC[C@]12C)CO[C@@H]1O[C@H](CO)[C@@H](O)[C@H](O)[C@H]1O` (some centres undefined), the “fold change (FC)” value in test [1] is given as 1.8; in test [4] it was 8.4. In addition, the result in test [2] and in test [3] was Active.

As for `CC1=C2[C@](O)(C[C@H]3[C@@H]4C[C@@H](O)[C@@]5(O)C[C@@H](O[C@@H]6O[C@H](CO)[C@@H](O[C@@H]7O[C@@H](C)[C@H](O)[C@@H](O)[C@H]7O)[C@H](O)[C@H]6O[C@@H]6O[C@@H](C)[C@H](O)[C@@H](O)[C@H]6O)CC[C@]5(C)[C@H]4CC[C@]23C)C(C[C@@H](C)CO[C@@H]2O[C@H](CO)[C@@H](O)[C@H](O)[C@H]2O)C1=O` (some centres undefined), the result in test [2] and in test [3] was Active.

Consider `Cc1c(CC[C@@H](C)CO[C@@H]2O[C@H](CO)[C@@H](O)[C@H](O)[C@H]2O)oc2c1[C@@]1(C)CC[C@H]3[C@@H](CC=C4C[C@@H](O[C@@H]5O[C@H](CO)[C@@H](O)[C@H](O)[C@H]5O[C@@H]5O[C@@H](C)[C@H](O)[C@@H](O)[C@H]5O)CC[C@@]43C)[C@@H]1C2`, for which the “fold change (FC)” value in test [1] worked out at 0.9; in test [4], 5.5. Moreover, the result in test [2] and in test [3] was Active.

In the case of `C[C@H](CCC(=O)[C@@H](C)C1C(=O)C[C@H]2[C@@H]3CC=C4C[C@@H](O[C@@H]5O[C@H](CO)[C@@H](O[C@@H]6O[C@@H](C)[C@H](O)[C@@H](O)[C@H]6O)[C@H](O)[C@H]5O[C@@H]5O[C@@H](C)[C@H](O)[C@@H](O)[C@H]5O)CC[C@]4(C)[C@H]3CC[C@]12C)CO[C@@H]1O[C@H](CO)[C@@H](O)[C@H](O)[C@H]1O` (some centres undefined), the result in test [2] and in test [3] was Active.

With `C/C(C(=O)CC[C@@H](C)CO[C@@H]1O[C@H](CO)[C@@H](O)[C@H](O)[C@H]1O)=C1/C(=O)C[C@H]2[C@@H]3C(=O)C=C4C[C@@H](O[C@@H]5O[C@H](CO)[C@@H](O[C@@H]6O[C@@H](C)[C@H](O)[C@@H](O)[C@H]6O)[C@H](O)[C@H]5O[C@@H]5O[C@@H](C)[C@H](O)[C@@H](O)[C@H]5O)CC[C@]4(C)[C@H]3CC[C@]12C`, in test [2], the result was Active.
